# Test results from patent US20050197350A1, “Novel quinoline, tetrahydroquinazoline, and pyrimidine derivatives and methods of treatment related to the use thereof” (TAISHO PHARMACEUTICAL CO., LTD., priority 2003, published 2005).
# System: MCH receptors
# Assay: MCH receptor activity class (method not given)
# Conditions: class by percent of control at 10^−7 M or IC50
row,SMILES,class
1,"Cc1cnc(N[C@H]2CC[C@@H](CNC(=O)c3cccc(C(F)(F)F)c3)CC2)nc1N(C)C [compound 2697, N-[(cis-4-{[4-(dimethylamino)-5-methylpyrimidin-2-yl]amino}cyclohexyl)methyl]-3-(trifluoromethyl)benzamide]",1 (Class 1: The value of percent of control at 10^−7 M was less than 40% or the value of IC50 was less than 50 nM.)
2,Cc1cnc(N[C@H]2CC[C@@H](CNC(=O)c3ccc(C(F)(F)F)cc3)CC2)nc1N(C)C [compound 2698],3 (Class 3 The value of percent of control at 10^−7 M was more than 60% or the value of IC50 was more than 200 nM.)
3,"Cc1cnc(N[C@H]2CC[C@@H](CNC(=O)c3cccc(OC(F)(F)F)c3)CC2)nc1N(C)C [compound 2699, N-[(cis-4-{[4-(dimethylamino)-5-methylpyrimidin-2-yl]amino}cyclohexyl)methyl]-3-(trifluoromethoxy)benzamide]",2 (Class 2: The value of percent of control at 10^−7 M was from 40% to 60% or the value of IC′50 was from 50 nM to 200 nM.)
4,"Cc1cnc(N[C@H]2CC[C@@H](CNC(=O)c3ccc(OC(F)(F)F)cc3)CC2)nc1N(C)C [compound 2700, N-[(cis-4-{[4-(dimethylamino)-5-methylpyrimidin-2-yl]amino}cyclohexyl)methyl]-4-(trifluoromethoxy)benzamide]",2 (Class 2: The value of percent of control at 10^−7 M was from 40% to 60% or the value of IC′50 was from 50 nM to 200 nM.)
5,Cc1cnc(N[C@H]2CC[C@@H](CNC(=O)c3ccc(C#N)cc3)CC2)nc1N(C)C [compound 2701],2 (Class 2: The value of percent of control at 10^−7 M was from 40% to 60% or the value of IC′50 was from 50 nM to 200 nM.)
6,Cc1cnc(N[C@H]2CC[C@@H](CNC(=O)c3ccc(Br)cc3)CC2)nc1N(C)C [compound 2702],1 (Class 1: The value of percent of control at 10^−7 M was less than 40% or the value of IC50 was less than 50 nM.)
7,"Cc1cc(C(=O)NC[C@H]2CC[C@@H](Nc3ncc(C)c(N(C)C)n3)CC2)ccc1Br [compound 2703, 4-bromo-N-[(cis-4-{[4-(dimethylamino)-5-methylpyrimidin-2-yl]amino}cyclohexyl)methyl]-3-methylbenzamide]",1 (Class 1: The value of percent of control at 10^−7 M was less than 40% or the value of IC50 was less than 50 nM.)
8,Cc1cnc(N[C@H]2CC[C@@H](CNC(=O)c3ccc(F)c(Cl)c3)CC2)nc1N(C)C [compound 2704],1 (Class 1: The value of percent of control at 10^−7 M was less than 40% or the value of IC50 was less than 50 nM.)
9,"Cc1cnc(N[C@H]2CC[C@@H](CNC(=O)c3ccc(C(F)(F)F)c(F)c3)CC2)nc1N(C)C [compound 2705, N-[(cis-4-{[4-(dimethylamino)-5-methylpyrimidin-2-yl]amino}cyclohexyl)methyl]-3-fluoro-4-(trifluoromethyl)benzamide]",2 (Class 2: The value of percent of control at 10^−7 M was from 40% to 60% or the value of IC′50 was from 50 nM to 200 nM.)
10,"Cc1cnc(N[C@H]2CC[C@@H](CNC(=O)c3cc(Cl)cc(Cl)c3)CC2)nc1N(C)C [compound 2706, 3,5-dichloro-N-[(cis-4-{[4-(dimethylamino)-5-methylpyrimidin-2-yl]amino}cyclohexyl)methyl]benzamide]",1 (Class 1: The value of percent of control at 10^−7 M was less than 40% or the value of IC50 was less than 50 nM.)
11,"Cc1cnc(N[C@H]2CC[C@@H](CNC(=O)c3ccc(Cl)c(Cl)c3)CC2)nc1N(C)C [compound 2707, 3,4-dichloro-N-[(cis-4-{[4-(dimethylamino)-5-methylpyrimidin-2-yl]amino}cyclohexyl)methyl]benzamide]",1 (Class 1: The value of percent of control at 10^−7 M was less than 40% or the value of IC50 was less than 50 nM.)
12,Cc1cnc(N[C@H]2CC[C@@H](CNC(=O)c3ccc4c(c3)OC(F)(F)O4)CC2)nc1N(C)C [compound 2708],2 (Class 2: The value of percent of control at 10^−7 M was from 40% to 60% or the value of IC′50 was from 50 nM to 200 nM.)
13,Cc1cnc(N[C@H]2CC[C@@H](CNC(=O)c3ccc(-c4ccccc4)cc3)CC2)nc1N(C)C [compound 2709],3 (Class 3 The value of percent of control at 10^−7 M was more than 60% or the value of IC50 was more than 200 nM.)
14,"Cc1cnc(N[C@H]2CC[C@@H](CNC(=O)c3ccc(Cl)cc3)CC2)nc1N(C)C [compound 2710, 4-chloro-N-[(cis-4-{[4-(dimethylamino)-5-methylpyrimidin-2-yl]amino}cyclohexyl)methyl]benzamide]",2 (Class 2: The value of percent of control at 10^−7 M was from 40% to 60% or the value of IC′50 was from 50 nM to 200 nM.)
15,COc1cc(OC)cc(C(=O)NC[C@H]2CC[C@@H](Nc3nc(C)cc(N(C)C)n3)CC2)c1 [compound 2711],2 (Class 2: The value of percent of control at 10^−7 M was from 40% to 60% or the value of IC′50 was from 50 nM to 200 nM.)
16,"Cc1cnc(NC[C@H]2CC[C@@H](NC(=O)c3ccccc3)CC2)nc1N(C)C [compound 2712, N-[cis-4-({[4-(dimethylamino)-5-methylpyrimidin-2-yl]amino}methyl)cyclohexyl]benzamide]",3 (Class 3 The value of percent of control at 10^−7 M was more than 60% or the value of IC50 was more than 200 nM.)
17,Cc1ccc(C(=O)N[C@H]2CC[C@@H](CNc3ncc(C)c(N(C)C)n3)CC2)cc1 [compound 2713],3 (Class 3 The value of percent of control at 10^−7 M was more than 60% or the value of IC50 was more than 200 nM.)
18,Cc1cnc(NC[C@H]2CC[C@@H](NC(=O)c3ccc(F)c(F)c3)CC2)nc1N(C)C [compound 2714],3 (Class 3 The value of percent of control at 10^−7 M was more than 60% or the value of IC50 was more than 200 nM.)
19,COc1ccc(C(=O)N[C@H]2CC[C@@H](CNc3ncc(C)c(N(C)C)n3)CC2)cc1 [compound 2715],3 (Class 3 The value of percent of control at 10^−7 M was more than 60% or the value of IC50 was more than 200 nM.)
20,"COc1cc(OC)cc(C(=O)N[C@H]2CC[C@@H](CNc3ncc(C)c(N(C)C)n3)CC2)c1 [compound 2716, N-[cis-4-({[4-(dimethylamino)-5-methylpyrimidin-2-yl]amino}methyl)cyclohexyl]-3,5-dimethoxybenzamide]",2 (Class 2: The value of percent of control at 10^−7 M was from 40% to 60% or the value of IC′50 was from 50 nM to 200 nM.)
21,Cc1ccc(C(=O)N[C@H]2CC[C@@H](CNc3ncc(C)c(N(C)C)n3)CC2)cc1F [compound 2717],3 (Class 3 The value of percent of control at 10^−7 M was more than 60% or the value of IC50 was more than 200 nM.)
22,Cc1cc(C(=O)N[C@H]2CC[C@@H](CNc3ncc(C)c(N(C)C)n3)CC2)ccc1F [compound 2718],2 (Class 2: The value of percent of control at 10^−7 M was from 40% to 60% or the value of IC′50 was from 50 nM to 200 nM.)
23,Cc1cnc(NC[C@H]2CC[C@@H](NC(=O)c3cccc(C(F)(F)F)c3)CC2)nc1N(C)C [compound 2719],3 (Class 3 The value of percent of control at 10^−7 M was more than 60% or the value of IC50 was more than 200 nM.)
24,Cc1cnc(NC[C@H]2CC[C@@H](NC(=O)c3ccc(C(F)(F)F)cc3)CC2)nc1N(C)C [compound 2720],3 (Class 3 The value of percent of control at 10^−7 M was more than 60% or the value of IC50 was more than 200 nM.)
